Assay results reported in patent US9708297B2, “CGRP receptor antagonists” (Eli Lilly and Company, priority 2015, dated 2017).

Key:
CGRP receptor = assay: Capsaicin-induced dermal blood flow (DBF), laser Doppler imaging, in nonhuman primates; format: in vivo; details: 90 min prior to capsaicin, cynomolgus NHP, compared to vehicle
Source text: Capsaicin-induced dermal blood flow (DBF) may be used as a target engagement biomarker to assess CGRP receptor activity in nonhuman primates (NHPs). Methods are adapted from earlier published procedures [Hershey et al., Regulatory Peptides, Volume 127, Issue 1-3, pp. 71-77, 2005].
Animal studies may be performed under protocols approved by the Covance Institutional Animal Care and Use Committee. Cynomolgus NHPs may be used given the close homology between NHP and human CGRP receptor. The study population may include healthy, CGRP antagonist naive cynomolgus NHP males weighing ˜3-4 kg.
Cynomolgus NHPs are enrolled in the study based on prescreening for capsaicin responsiveness. […] NHPs are used in a cross over design in which all NHPs received all doses after a two week wash-out period. Total n=10 NHPs per group. […]
Analysis and Statistics: LDI repeat scans are analyzed using Moor software v.5.2 (Moor Instruments, Wilmington, Del.) by region of interest signal analysis, and Microsoft Excel worksheets are used for averaging the signal from the regions of interest at a given time point. […] Analyzed data is entered into Graphpad PRISM® 4.0 for graphing and a repeated measurement mixed-effect model in SAS® 9.1 is used for statistical analysis. Data is expressed as mean+/−SD.

[1] = target: T1, hCGRP (human calcitonin gene-related peptide) receptor (Homo sapiens, UniProt O60894+Q16602); assay: Inhibition of cAMP production by CGRP receptor antagonists (HTRF) in SK-N-MC cells; format: cell-based; details: SK-N-MC cells endogenously expressing hCGRP receptor; human CGRP 0.8 nM as agonist; Kb=IC50/[1+([Agonist]/EC50)]; mean ± SEM
T1 construct: SK-N-MC neuroblastoma cells (ATCC® HTB-10™) that endogenously express the hCGRP receptor; host or cells: SK-N-MC neuroblastoma cells
Method: The hCGRP (human calcitonin gene-related peptide) receptor is functionally coupled to the Gas proteins. Stimulation of hCGRP results in an increased synthesis of intracellular cAMP and can be blocked by the addition of receptor antagonists. Receptor activity is thus a reflection of the amount of cAMP present within cells which can be detected using standard in vitro technology.
Cultured SK-N-MC neuroblastoma cells (ATCC® HTB-10™) that endogenously express the hCGRP receptor are grown in Eagle's Minimum essential medium (HYCLONE™) supplemented with 10% heat-inactivated Fetal bovine serum (FBS; GIBCO®), Non-Essential Amino Acids (GIBCO®), 1 mM sodium pyruvate, 2 mM L-glutamine, 100 U/mL of penicillin, and 10 μg/mL of streptomycin to about 70% confluency. After providing fresh medium, the cells are incubated at 37° C. overnight. On the day of the assay, cells are detached using ACCUTASE® (MP Biomedicals), resuspended in assay buffer [Hank's Balanced Salt Solution/Dulbecco's phosphate-buffered saline with […] each of CaCl2 and MgCl2 mixed 1:2, 3.3 mM 4-(2-hydroxyethyl)-1-piperazineethanesulfonic acid, 0.03% bovine serum albumin, and 0.5 mM 1-methyl-3-isobutylxanthine (as inhibitor of […])], and seeded 3-5K/well into 384-well, poly-D-lysine coated white plates (BD Biosciences).
For dose-response studies, compounds are serially diluted 1:3 in dimethyl sulfoxide and then 1:10 into assay buffer. Human CGRP (0.8 nM; Bachem) as a receptor-specific agonist for the hCGRP receptor is mixed with diluted compound and added to the cells as the challenge stimulant at their EC80 concentrations.
The amount of intracellular cAMP is quantitated using HTRF technology (Cisbio) as per vendor instructions. Briefly, cAMP-d2 conjugate and anti-cAMP-cryptate conjugate in lysis buffer are incubated with the treated cells at RT for 90 min. The HTRF signal is immediately detected using an ENVISION® plate reader (Perkin-Elmer) to calculate the ratio of fluorescence at […]. The raw data are converted to cAMP amount (pmole/well) using a cAMP standard curve generated for each experiment. Relative EC50 values are calculated from the top-bottom range of the concentration response curve using a four-parameter logistic curve fitting program (ACTIVITYBASE® v5.3.1.22 or GENEDATA SCREENER® v12.0.4), and Kb values are estimated as agonist-corrected IC50 values using the equation: Kb=(IC50)/[1+([Agonist]/EC50)]. Estimated Kb values are reported as mean values±SEM, averaged from the number of runs (n).
Following the procedure essentially as described above, the compounds of Examples 1-12 have a Kb measured at human CGRP as shown in Table 3.

T1 sequence (Q16602 23-461): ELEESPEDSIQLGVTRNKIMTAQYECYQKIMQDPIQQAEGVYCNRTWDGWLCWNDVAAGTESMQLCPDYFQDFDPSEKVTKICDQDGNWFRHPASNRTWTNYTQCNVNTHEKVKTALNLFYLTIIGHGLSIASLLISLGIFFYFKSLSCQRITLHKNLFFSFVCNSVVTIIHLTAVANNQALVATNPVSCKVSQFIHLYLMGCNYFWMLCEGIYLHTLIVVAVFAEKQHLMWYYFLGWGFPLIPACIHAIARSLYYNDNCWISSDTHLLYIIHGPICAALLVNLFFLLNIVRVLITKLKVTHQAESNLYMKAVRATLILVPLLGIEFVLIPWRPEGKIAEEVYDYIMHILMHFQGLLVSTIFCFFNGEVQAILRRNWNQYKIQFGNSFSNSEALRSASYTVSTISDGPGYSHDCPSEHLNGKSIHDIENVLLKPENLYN
T1 sequence (O60894 27-148): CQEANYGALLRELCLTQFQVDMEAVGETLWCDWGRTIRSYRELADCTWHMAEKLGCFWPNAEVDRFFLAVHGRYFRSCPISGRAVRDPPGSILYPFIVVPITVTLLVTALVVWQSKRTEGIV

SMILES	Kb [1]	group mean inhibition of capsaicin-induced blood flow increase (CGRP receptor; 3 mg/kg orally, p<0.003)	group mean inhibition of capsaicin-induced blood flow increase (CGRP receptor; 30 mg/kg orally, p<0.00001)
Cc1cc(CNC(=O)c2ccc([C@@H](C)[C@]3(C)CC(=O)NC3=O)cc2)cc(C)n1 [Example 1, N-[(2,6-dimethylpyridin-4-yl)methyl]-4-{(1R)-1-[(3S)-3-methyl-2,5-dioxopyrrolidin-3-yl]ethyl}benzamide]	0.546 ± 0.226 nM	27.4%	40.6%
Cc1cc(C)nc(CNC(=O)c2ccc([C@@H](C)[C@]3(C)CC(=O)NC3=O)cc2)c1 [Example 2, N-[(4,6-dimethyl-2-pyridyl)methyl]-4-[(l R)-1-[(3S)-3-methyl-2,5-dioxo-pyrrolidin-3-yl]ethyl]benzamide]	2.22 ± 1.47 nM	–	–
Cc1cc(C#N)nc(CNC(=O)c2ccc([C@@H](C)[C@]3(C)CC(=O)NC3=O)cc2)c1 [Example 3, N-[(6-cyano-4-methyl-2-pyridyl)methyl]-4-[(1R)-1-[(3S)-3-methyl-2,5-dioxo-pyrrolidin-3-yl]ethyl]benzamide]	1.51 ± 0.14 nM	–	–
Cc1cc(CNC(=O)c2ccc([C@@H](C)[C@]3(C)CC(=O)NC3=O)cc2)cc(C#N)n1 [Example 4, N-[(2-cyano-6-methyl-4-pyridyl)methyl]-4-[(1R)-1-[(3S)-3-methyl-2,5-dioxo-pyrrolidin-3-yl]ethyl]benzamide]	23.5 ± 0.925 nM	–	–
Cc1cc(CNC(=O)c2ccc([C@@H](C)[C@]3(C)CC(=O)NC3=O)cc2)cc(C(C)C)n1 [Example 5, N-[(2-isopropyl-6-methyl-4-pyridyl)methyl]-4-[(R)-1-[(3S)-3-methyl-2,5-dioxo-pyrrolidin-3-yl]ethyl]benzamide]	0.718 ± 0.0045 nM	–	–
Cc1cc(CNC(=O)c2ccc([C@@H](C)[C@]3(C)CC(=O)NC3=O)cc2)cc(C2CC2)n1 [Example 6, N-[(2-cyclopropyl-6-methyl-4-pyridyl)methyl]-4-[(1R)-1-[(3S)-3-methyl-2,5-dioxo-pyrrolidin-3-yl]ethyl]benzamide]	0.375 ± 0.172 nM	–	–

Second part, led by results:

Kb [1]	SMILES	group mean inhibition of capsaicin-induced blood flow increase (CGRP receptor; 3 mg/kg orally, p<0.003)	group mean inhibition of capsaicin-induced blood flow increase (CGRP receptor; 30 mg/kg orally, p<0.00001)
0.582 ± 0.228 nM	Cc1cc(CNC(=O)c2ccc([C@@H](C)[C@]3(C)CC(=O)NC3=O)cc2)nc(C2CC2)c1 [Example 7, N-[(6-cyclopropyl-4-methyl-2-pyridyl)methyl]-4-[(1R)-1-[(3S)-3-methyl-2,5-dioxo-pyrrolidin-3-yl]ethyl]benzamide]	–	–
1.25 ± 0.0045 nM	Cc1cc(CNC(=O)c2ccc([C@@H](C)[C@]3(C)CC(=O)NC3=O)cn2)cc(C)n1 [Example 8, N-[(2,6-dimethyl-4-pyridyl)methyl]-5-[(1R)-1-[(3S)-3-methyl-2,5-dioxo-pyrrolidin-3-yl]ethyl]pyridine-2-carboxamide]	–	–
1.15 ± 0.181 nM	Cc1cc(CNC(=O)c2ccc([C@@H](C)[C@]3(C)CC(=O)NC3=O)cn2)cc(C2CC2)n1 [Example 9, N-[(2-cyclopropyl-6-methyl-4-pyridyl)methyl]-5-[(1R)-1-[(3S)-3-methyl-2,5-dioxo-pyrrolidin-3-yl]ethyl]pyridine-2-carboxamide]	–	–
0.6 ± 0.0431 nM	CCc1cc(CNC(=O)c2ccc([C@@H](C)[C@]3(C)CC(=O)NC3=O)cc2)cc(C)n1 [Example 10, N-[(2-ethyl-6-methylpyridin-4-yl)methyl]-4-{(1R)-1-[(3S)-3-methyl-2,5-dioxopyrrolidin-3-yl]ethyl}benzamide]	–	–
0.11 ± 0.011 nM	Cc1cc(CNC(=O)c2ccc([C@@H](C)[C@]3(C)CC(=O)NC3=O)cc2)cc(C2CCC2)n1 [Example 11, N-[(2-cyclobutyl-6-methylpyridin-4-yl)methyl]-4-{(1R)-1-[(3S)-3-methyl-2,5-dioxopyrrolidin-3-yl]ethyl}benzamide]	–	–
0.295 ± 0.056 nM	Cc1cc(CNC(=O)c2ccc([C@@H](C)[C@]3(C)CC(=O)NC3=O)cc2)cc(C2CCCC2)n1 [Example 12, N-[(2-cyclopentyl-6-methylpyridin-4-yl)methyl]-4-{(1R)-1-[(3S)-3-methyl-2,5-dioxopyrrolidin-3-yl]ethyl}benzamide]	–	–
